According to patent US6475434B1, “Composition and methods for preventing and removing biofilm embedded microorganisms from the surface of medical devices” (Baylor College of Medicine, priority 1998, dated 2002):
Values after ≈ are worked out from the molar mass of the structure shown.

Assays:
[1] = tested on: Staphylococcus epidermidis; assay: Minimal bactericidal concentration for the studied strain; assay type: cell-based; conditions: studied strain of Staphylococcus epidermidis
Description: Treatment phase: The lumens of the eight catheters were treated with biofilm penetrating composition solutions as described in Table I. The N-acetylcysteine and rifampin are used at a concentration equivalent to ten times the corresponding minimal bactericidal concentration of the N-aceylcysteine and the rifampin for the studied strain of Staphylococcus epidermidis (3.1 mg/ml and 0.02 μg/ml respectively).

[2] = tested on: Staphylococcus epidermidis; assay: Flush cultures of biofilm-colonised catheter lumens after treatment solutions (Example 1); assay type: cell-based
Description: Seeding phase: A dynamic flow sterile system that consisted of an infusion bad containing a bacterial suspension of Staphylococcus epidermidis (4×10^5 cfu/ml of saline) that infused at equal (about 41 ml/hour) into the lumens of eight ethylene oxide gas sterilized, 7-french, 20 cm polyurethane, single-lumen catheters for 12 hours at room temperature. The catheters were covered plastic sheath to ensure sterility of the surfaces. The bacterial suspension drained from the catheters into beakers.
Growth phase: The lumens of the four catheters were infused with sterile trypticase soy broth (“TSB”) at a rate of 10 ml/hour for 24 hours to allow for biofilm formation. The infused broth drained from the catheters into the beakers. […]
The clamps were removed from each end of Catheters 1, 3, 5, and 7 and the treatment solutions were drained. […] Hundred microliter aliquots of the collected portions of the flushed TSB and 10-fold serial dilutions were inoculated onto chocolate agar plates and colony counts were determined after incubation of agar plates at 37° C. for 48 hours.

Row | SMILES | MBC [1] [µg/mL] | effect on biofilm and biofilm embedded microorganisms (in words) ([2]; Example 1 conclusion, 31 mg/ml in phosphate buffered saline) | antimicrobial activity against biofilm embedded microorganisms compared with rifampin (in words) ([2]; assessed by flush cultures, at the concentration used)
1 | CC(=O)N[C@@H](CS)C(=O)O [N-acetylcysteine] | 3100 (≈ 19 mM) | effectively penetrates and breaks-up the biofilm and kills biofilm embedded microorganisms | surpasses the antimicrobial activity of rifampin
2 | CO[C@H]1/C=C/O[C@@]2(C)Oc3c(C)c(O)c4c(O)c(c(/C=N/N5CCN(C)CC5)c(O)c4c3C2=O)NC(=O)/C(C)=C\C=C\[C@H](C)[C@H](O)[C@@H](C)[C@@H](O)[C@@H](C)[C@H](OC(C)=O)[C@@H]1C [rifampin] | 0.02 (≈ 2.43e-05 mM) | – | –
